From patent US9161935B2 (TEVA PHARMACEUTICAL INDUSTRIES, LTD., priority 2012, dated 2015)

Test system: Sub-Populations of Crohn's Disease Patients
Assay: CD-LAQ-201 sub-populations of Crohn's disease patients (Example 2)
Format: in vivo, human
Protocol: This study was conducted according and with similar requirements as presented in Example 1. […] Patients, who have received anti-TNFαs in the past, tend to reflect a more severe, refractory segment of the Crohn's disease population. […] This sub-cohort analysis describes remission rates at week 8 for patients who were classified as having a predominantly inflammatory disease (based on the Montreal classifications) versus those that have a fibrostenotic or penetrating disease.

[1] = Laq 1.0 mg, Previous use of anti-TNFαs YES, week 8
[2] = Laq 1.5 mg, Fibrostenotic, week 8
[3] = Laq 1.5 mg, Inflammatory, week 8
[4] = Laq 1.5 mg, Oral steroids on Baseline NO
[5] = Laq 1.5 mg, Oral steroids on Baseline NO, week 8
[6] = Laq 1.5 mg, Oral steroids on Baseline YES
[7] = Laq 1.5 mg, Oral steroids on Baseline YES, week 8
[8] = Laq 1.5 mg, Previous Operations NO
[9] = Laq 1.5 mg, Previous Operations NO, week 8
[10] = Laq 1.5 mg, Previous Operations YES
[11] = Laq 1.5 mg, Previous Operations YES, week 8
[12] = Laq 1.5 mg, Previous use of anti-TNFαs NO
[13] = Laq 1.5 mg, Previous use of anti-TNFαs NO, week 8
[14] = Laq 1.5 mg, Previous use of anti-TNFαs YES
[15] = Laq 1.5 mg, Previous use of anti-TNFαs YES, week 8
[16] = Laq 2.0 mg, Fibrostenotic, week 8
[17] = Laq 2.0 mg, Inflammatory, week 8
[18] = Laq 2.0 mg, Oral steroids on Baseline NO
[19] = Laq 2.0 mg, Oral steroids on Baseline NO, week 8
[20] = Laq 2.0 mg, Oral steroids on Baseline YES
[21] = Laq 2.0 mg, Oral steroids on Baseline YES, week 8
[22] = Laq 2.0 mg, Previous Operations NO
[23] = Laq 2.0 mg, Previous Operations NO, week 8
[24] = Laq 2.0 mg, Previous Operations YES
[25] = Laq 2.0 mg, Previous Operations YES, week 8
[26] = Laq 2.0 mg, Previous use of anti-TNFαs NO
[27] = Laq 2.0 mg, Previous use of anti-TNFαs NO, week 8
[28] = Laq 2.0 mg, Previous use of anti-TNFαs YES
[29] = Laq 2.0 mg, Previous use of anti-TNFαs YES, week 8

Question: Which results are given for `CCN(C(=O)c1c(O)c2c(Cl)cccc2n(C)c1=O)c1ccccc1` [laquinimod]?
Answer: Responders100 - N (%): N (Laq 1.0 mg, Previous use of anti-TNFαs YES): 5; Remission - N (%): % [1]: 16.7%; Remission - N (%): N [1]: 3; CDAI Change from Baseline - Mean ± SD (Laq 1.5 mg, Fibrostenotic): −51.8; Responders70 - N (%): % (Laq 1.5 mg, Fibrostenotic): 27.8%; Responders70 - N (%): N (Laq 1.5 mg, Fibrostenotic): 5; Responders100 - N (%): % (Laq 1.5 mg, Fibrostenotic): 27.8%; Responders100 - N (%): N (Laq 1.5 mg, Fibrostenotic): 5; Remission - N (%): % [2]: 11.1%; Remission - N (%): N [2]: 2; CDAI Change from Baseline - Mean ± SD (Laq 1.5 mg, Inflammatory): −43.8; Responders70 - N (%): % (Laq 1.5 mg, Inflammatory): 36.4%; Responders70 - N (%): N (Laq 1.5 mg, Inflammatory): 4; Responders100 - N (%): % (Laq 1.5 mg, Inflammatory): 27.3%; Responders100 - N (%): N (Laq 1.5 mg, Inflammatory): 3; Remission - N (%): % [3]: 18.2%; Remission - N (%): N [3]: 2; CDAI Change from Baseline - Mean ± SD [4]: −46.8; Responders70 - N (%): % [4]: 25.0%; Responders70 - N (%): N [4]: 5; Responders100 - N (%): % [4]: 20.0%; Responders100 - N (%): N [4]: 4; Remission - N (%): % [5]: 10.0%; Remission - N (%): N [5]: 2; CDAI Change from Baseline - Mean ± SD [6]: −52.6; Responders70 - N (%): % [6]: 44.4%; Responders70 - N (%): N [6]: 4; Responders100 - N (%): % [6]: 44.4%; Responders100 - N (%): N [6]: 4; Remission - N (%): % [7]: 22.2%; Remission - N (%): N [7]: 2; CDAI Change from Baseline - Mean ± SD [8]: −68.3; Responders70 - N (%): % [8]: 43.8%; Responders70 - N (%): N [8]: 7; Responders100 - N (%): % [8]: 37.5%; Responders100 - N (%): N [8]: 6; Remission - N (%): % [9]: 25.0%; Remission - N (%): N [9]: 4; CDAI Change from Baseline - Mean ± SD [10]: −26.0; Responders70 - N (%): % [10]: 15.4%; Responders70 - N (%): N [10]: 2; Responders100 - N (%): % [10]: 15.4%; Responders100 - N (%): N [10]: 2; Remission - N (%): % [11]: 0.0%; Remission - N (%): N [11]: 0; CDAI Change from Baseline - Mean ± SD [12]: −95.5; Responders70 - N (%): % [12]: 54.5%; Responders70 - N (%): N [12]: 6; Responders100 - N (%): % [12]: 45.5%; Responders100 - N (%): N [12]: 5; Remission - N (%): % [13]: 27.3%; Remission - N (%): N [13]: 3; CDAI Change from Baseline - Mean ± SD [14]: −18.4; Responders70 - N (%): % [14]: 16.7%; Responders70 - N (%): N [14]: 3; Responders100 - N (%): % [14]: 16.7%; Responders100 - N (%): N [14]: 3; Remission - N (%): % [15]: 5.6%; Remission - N (%): N [15]: 1; CDAI Change from Baseline - Mean ± SD (Laq 2.0 mg, Fibrostenotic): −40.7; Responders70 - N (%): % (Laq 2.0 mg, Fibrostenotic): 22.2%; Responders70 - N (%): N (Laq 2.0 mg, Fibrostenotic): 4; Responders100 - N (%): % (Laq 2.0 mg, Fibrostenotic): 22.2%; Responders100 - N (%): N (Laq 2.0 mg, Fibrostenotic): 4; Remission - N (%): % [16]: 16.7%; Remission - N (%): N [16]: 3; CDAI Change from Baseline - Mean ± SD (Laq 2.0 mg, Inflammatory): −33.1; Responders70 - N (%): % (Laq 2.0 mg, Inflammatory): 36.4%; Responders70 - N (%): N (Laq 2.0 mg, Inflammatory): 4; Responders100 - N (%): % (Laq 2.0 mg, Inflammatory): 36.4%; Responders100 - N (%): N (Laq 2.0 mg, Inflammatory): 4; Remission - N (%): % [17]: 18.2%; Remission - N (%): N [17]: 2; CDAI Change from Baseline - Mean ± SD [18]: −39.7; Responders70 - N (%): % [18]: 29.2%; Responders70 - N (%): N [18]: 7; Responders100 - N (%): % [18]: 29.2%; Responders100 - N (%): N [18]: 7; Remission - N (%): % [19]: 16.7%; Remission - N (%): N [19]: 4; CDAI Change from Baseline - Mean ± SD [20]: −20.3; Responders70 - N (%): % [20]: 20.0%; Responders70 - N (%): N [20]: 1; Responders100 - N (%): % [20]: 20.0%; Responders100 - N (%): N [20]: 1; Remission - N (%): % [21]: 20.0%; Remission - N (%): N [21]: 1; CDAI Change from Baseline - Mean ± SD [22]: −54.6; Responders70 - N (%): % [22]: 37.5%; Responders70 - N (%): N [22]: 6; Responders100 - N (%): % [22]: 37.5%; Responders100 - N (%): N [22]: 6; Remission - N (%): % [23]: 18.8%; Remission - N (%): N [23]: 3; CDAI Change from Baseline - Mean ± SD [24]: −14.2; Responders70 - N (%): % [24]: 15.4%; Responders70 - N (%): N [24]: 2; Responders100 - N (%): % [24]: 15.4%; Responders100 - N (%): N [24]: 2; Remission - N (%): % [25]: 15.4%; Remission - N (%): N [25]: 2; CDAI Change from Baseline - Mean ± SD [26]: −56.4; Responders70 - N (%): % [26]: 55.6%; Responders70 - N (%): N [26]: 10; Responders100 - N (%): % [26]: 33.3%; Responders100 - N (%): N [26]: 6; Remission - N (%): % [27]: 27.8%; Remission - N (%): N [27]: 5; CDAI Change from Baseline - Mean ± SD [28]: −102.2; Responders70 - N (%): % [28]: 50.0%; Responders70 - N (%): N [28]: 6; Responders100 - N (%): % [28]: 50.0%; Responders100 - N (%): N [28]: 6; Remission - N (%): % [29]: 25.0%; Remission - N (%): N [29]: 3; effect of oral steroids together with laquinimod on remission at week 8 (laquinimod 0.5 mg): potential synergistic effect; effect on remission at week 8 with or without previous operations (laquinimod 0.5 mg): had an effect over placebo in both sub-populations; remission in predominantly inflammatory disease vs the complementary cohort (laquinimod 0.5 mg and 1 mg, week 8): may work better
